Values of other authors in patent publication US4510132A, “Compounds for use in antibacterial therapy” (priority 1982, dated 1985).

Columns and labels:
[1] = Chihara et al 1973, 1974; cited from earlier work
mice = conditions: Chihara et al, Kajiwara et al; cited from earlier work

Substance: polymyxin E nonapeptide [PMEN]
- antibacterial activity compared with colistin [1]: lack the antibacterial activity of colistin
- toxicity to eukaryotes (mice) compared with parent compound colistin (mice): significantly less toxic
